# Several values for one entry are separate records, joined by “and”; a condition that tells them apart may be missing. Equal values may be shown once.
# Key:
# [1] = Antioxidant assay: oxygen radical absorbance capacity fluorescein (ORAC-FL) method; conditions: AAPH 12 mM, fluorescein 150 nM, pH 7.4, 37°C, samples 1–10 μM
# Method: The modified oxygen radical absorbance capacity fluorescein (ORAC-FL) method was performed to determine the antioxidant activity (Ou et al., [2001]; Dávalos et al., [2004]). The reaction was diluted with 75 mM phosphate buffer (pH = 7.4), and the volume of the final reaction mixture was 200 μL in well. Test compound (20 μL) and fluorescein (120 μL, 150 nM final concentration) were placed in the well of a black 96 well optical bottom plates. After the mixture was incubated at 37°C for 15 min, AAPH solution (60 μL, 12 mM final concentration) was added rapidly. The plate was placed in a Spectrafluor Plus plate reader (Tecan, Crailsheim, Germany) and the fluorescence was recorded every minute for 4 h with an excitation wavelength at 485 nm and emission wavelength at 535 nm. Trolox was used as standard (1–8 μM, final concentration). A blank (fluorescein + AAPH) with phosphate buffer instead of test compounds and trolox calibration were performed for the assays of antioxidants. The samples were measured at different concentration (1–10 μM). All the reaction mixtures were prepared fourfold, and at least three independent assays were performed for each sample. Fluorescence in time course was normalized on basis of the blank (without antioxidants). The ORAC-FL values were calculated as the reported method. Final ORAC-FL values were expressed in μM of trolox equivalents. Ferulic acid was used as the positive reference compound, showing an ORAC-FL value of 1.6 trolox equivalents.
# [2] = target: T1, PDE10A catalytic domain (residues 446-789) (Homo sapiens, UniProt Q9Y233); assay: PDE10A enzymatic assay (3H-cGMP hydrolysis, scintillation counting); format: biochemical; conditions: for inhibition at 1 µM: compound concentration 1 μM, read-out: PDE10 inhibitory assay Inhibition ratio (1 μM) (%); for IC50: mean of three independent determinations, 3H-cGMP substrate, read-out: PDE10 inhibitory assay IC50
# T1 construct: coding the catalytic domain (residues 446-789); inferred from the pET15b vector and the Ni-NTA purification) (N); made in house; host or cells: E. coli BL21 (Codonplus, Stratagene)
# T1 sequence (Q9Y233 712-1055): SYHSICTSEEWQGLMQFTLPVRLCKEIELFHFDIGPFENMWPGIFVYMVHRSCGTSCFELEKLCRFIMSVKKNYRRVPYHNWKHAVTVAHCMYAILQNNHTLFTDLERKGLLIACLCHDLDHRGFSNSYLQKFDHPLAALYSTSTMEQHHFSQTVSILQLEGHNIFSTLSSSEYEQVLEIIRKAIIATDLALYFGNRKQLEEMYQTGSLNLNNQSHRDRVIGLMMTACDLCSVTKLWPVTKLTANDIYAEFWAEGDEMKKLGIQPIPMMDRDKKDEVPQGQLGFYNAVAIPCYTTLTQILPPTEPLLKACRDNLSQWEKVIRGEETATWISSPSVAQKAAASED
# Method: The recombinant pET15b-PDE10A plasmid coding the catalytic domain (residues 446-789) was subcloned and purified according to the following protocols previously reported (Li et al., [2015]). Then it was transferred into E. coli strain BL21 (Codonplus, Stratagene). The E. coli cells carrying the recombinant plasmid were cultured in an 2XYT medium (containing 100 μg/mL ampicillin and 30 μg/mL chloramphenicol) at 37°C until OD600 = 0.6-0.8. And then, 1 mM isopropyl-β-D-thiogalactopyranoside was added in to induce the PDE10A protein expression at 20°C for 24 h. The nickel nitriloacetic acid (Ni-NTA) column (Qiagen) was used for purifying PDE10A proteins. The concentration of the PDE10 fractions was estimated based on the absorbance at 280 nm (calculated by the ProtParam software).
# The enzymatic activities of the catalytic domains of PDE10A were performed using ^3H-cGMP solution in the assay buffer of 50 mM Tris pH = 7.5, 4 mM MgCl2, 1 mM DTT, and ^3H-cGMP giving 20,000–30,000 cpm after the reaction terminated per assay. To a solution (DMSO) of test compounds in different concentration, the PDE10A enzyme in the assay buffer was added to perform the enzymatic reaction and then incubated at room temperature for 15 min. The assay was then terminated by addition of 0.2 M ZnSO4, Subsequently, 0.2 N Ba(OH)2 was added to precipitate the reaction product ^3H-GMP, whereas unreacted ^3H-cGMP remained in the supernatant. The radioactivity in the supernatant was measured in 2.5 mL Ultima Gold liquid scintillation cocktails (PerkinElmer) by a liquid scintillation counter (PerkinElmer 2910). The IC50 values of test compounds at PDE10A enzymes were measured by repeating of three independent experiments using the nonlinear regression method.
# PDE10A = test system: PDE10A; set-up: method as in Siuciak et al., 2006a; conditions: ref Siuciak et al., 2006a; read-out: IC50 toward PDE10A; cited from earlier work
Structure (SMILES),inhibition at 1 µM [2],IC50 [2],ORAC (oxygen radical absorbance capacity) [1],IC50 (PDE10A)
"COc1cc(/C=C/C(=O)O)ccc1O [Ferulic acid, reference compound]",,,1.6 trolox equivalents and 1.6 ± 0.1 trolox equivalents,
COc1ccc(Cc2nccc3cc(OC)c(OC)cc23)cc1OC [Papaverine],,,,10 to 300 nM
COc1cc2ncnc(NC(C)CCc3c[nH]c4ccccc34)c2cc1OC (stereo not drawn) [Compound 12],84%,< 1000 nM and 240 nM,1.3 trolox equivalents and 1.3 ± 0.2 trolox equivalents,
"COc1cc2ncnc(N3CCOCC3)c2cc1OC(=O)C=Cc1ccc(O)cc1 [Compound 8b, 7-methoxy-4-morpholinoquinazolin-6-yl 3-(4-hydroxyphenyl)acrylate]",26%,,3.3 trolox equivalents and 3.3 ± 0.1 trolox equivalents,
"COc1cc2ncnc(NCCc3nc4ccccc4[nH]3)c2cc1OC [Compound 13, N-(2-(1H-benzo[d]imidazol-2-yl)ethyl)-6,7-dimethoxyquinazolin-4-amine]",80%,< 1000 nM and 680 nM,0.15 ± 0.02 trolox equivalents,
"COc1cc2ncnc(N3CCOCC3)c2cc1OC(=O)CCCCC1CCSS1 (stereo not drawn) [Compound 8c, 7-methoxy-4-morpholinoquinazolin-6-yl 5-(1,2-dithiolan-3-yl)pentanoate]",24%,,0.3 ± 0.01 trolox equivalents,
"COc1cc2ncnc(N3CCOCC3)c2cc1OCCc1c[nH]c2ccccc12 [Compound 8a, 4-(6-(2-(1H-indol-3-yl)ethoxy)-7-methoxyquinazolin-4-yl) morpholine]",57%,,1.0 trolox equivalents and 1.0 ± 0.1 trolox equivalents,

# More lines, main results first:
inhibition at 1 µM [2],IC50 [2],Structure (SMILES),ORAC (oxygen radical absorbance capacity) [1],IC50 (PDE10A)
72%,< 1000 nM and 760 nM,"COc1cc2ncnc(NCCc3c[nH]c4ccccc34)c2cc1OC [Compound 11a, N-(2-(1H-indol-3-yl)ethyl)-6,7-dimethoxyquinazolin-4-amine]",1.3 ± 0.1 trolox equivalents,
76%,< 1000 nM and 640 nM,"COc1cc2ncnc(NCCc3c[nH]c4ccc(O)cc34)c2cc1OC [Compound 11e, 3-(2-((6,7-dimethoxyquinazolin-4-yl)amino)ethyl)-1H-indol-5-ol]",2.3 trolox equivalents and 2.3 ± 0.2 trolox equivalents,
78%,< 1000 nM and 330 nM,"COc1cc2ncnc(NCCc3c[nH]c4cc(F)ccc34)c2cc1OC [Compound 11f, N-(2-(6-fluoro-1H-indol-3-yl)ethyl)-6,7-dimethoxyquinazolin-4-amine]",1.0 trolox equivalents and 1.0 ± 0.1 trolox equivalents,
56%,,"COc1ccc2[nH]cc(CC(C)Nc3ncnc4cc(OC)c(OC)cc34)c2c1 (stereo not drawn) [Compound 11d, 6,7-dimethoxy-N-(1-(5-methoxy-1H-indol-3-yl)propan-2-yl)quinazolin-4-amine]",1.3 trolox equivalents and 1.3 ± 0.1 trolox equivalents,
49%,,"COc1ccc2[nH]cc(CCNc3ncnc4cc(OC)c(OC)cc34)c2c1 [Compound 11c, 6,7-dimethoxy-N-(2-(5-methoxy-1H-indol-3-yl)ethyl)quinazolin-4-amine]",2.2 trolox equivalents and 2.2 ± 0.03 trolox equivalents,
66%,,"COc1cc2ncnc(NC(C)Cc3c[nH]c4ccccc34)c2cc1OC (stereo not drawn) [Compound 11b, N-(1-(1H-indol-3-yl)propan-2-yl)-6,7-dimethoxyquinazolin-4-amine]",1.5 ± 0.1 trolox equivalents,
64%,,"COc1cc2ncnc(NCCc3c[nH]c4ccc(C)cc34)c2cc1OC [Compound 11g, 6,7-dimethoxy-N-(2-(5-methyl-1H-indol-3-Yl)ethyl)quinazolin-4-amine]",1.0 ± 0.2 trolox equivalents,
66%,,"COc1cc2ncnc(NCCc3c[nH]c4ccc(Br)cc34)c2cc1OC [Compound 11h, N-(2-(5-bromo-1H-indol-3-yl)ethyl)-6,7-dimethoxyquinazolin-4-amine]",1.9 ± 0.1 trolox equivalents,
